From article PMC10788917 (Journal of Medicinal Chemistry, 2023) come the findings set out here.

In this assay the target is T1, HDAC8 Cys102Ser/Cys153Ser (Homo sapiens, UniProt Q9BY41, C102S/C153S).
T1 construct: made in house
T1 sequence (Q9BY41 1-377 C102S/C153S): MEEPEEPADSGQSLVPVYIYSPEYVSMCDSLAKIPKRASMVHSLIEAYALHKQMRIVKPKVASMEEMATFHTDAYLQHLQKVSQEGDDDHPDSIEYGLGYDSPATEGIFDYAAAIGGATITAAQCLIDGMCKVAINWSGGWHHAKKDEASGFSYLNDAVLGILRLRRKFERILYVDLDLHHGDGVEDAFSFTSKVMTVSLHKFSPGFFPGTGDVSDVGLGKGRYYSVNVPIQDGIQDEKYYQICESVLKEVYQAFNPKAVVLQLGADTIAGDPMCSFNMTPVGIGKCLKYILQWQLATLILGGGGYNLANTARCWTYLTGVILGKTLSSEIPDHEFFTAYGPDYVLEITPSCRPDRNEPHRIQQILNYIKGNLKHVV
Kind of assay: HDAC8 mutant biochemical assay. The conditions noted are these: read-out: IC50 [μM] @ 100 nM HDAC8: A Cys102Ser/Cys153Ser, 1 h preincubation. As to the method:
HDAC8 mutant variants were generated, produced, and further purified as described previously.[32] Cysteines 28 and 314 were exchanged with serine using the following primer pairs: HD8_C28S_for, […]; HD8_C28S_rev, […]; HD8_C314S_for, […]; HD8_C314S_rev, […].
The enzyme activity assay was performed in assay buffer [25 mM Tris-HCl (pH 8.0), 50 mM NaCl, and 0.001% (v/v) Pluronic F-68] in black half-area 96-well microplates (Greiner Bio-One). For the initial screening, 10 nM HDAC8 was preincubated with the indicated compounds at 250 μM for 2 h at 30 °C. […] The reaction was initiated by the addition of 20 μM Boc-Lys(TFA)-AMC (Bachem). After substrate conversion at 30 °C for 15 min for HDAC8 and 1 h for HDAC8 mutants and HDAC4, the reaction was stopped by adding 1.67 μM suberoylanilide trifluoromethylketone (SATFMK). The deacetylated substrate was cleaved with 0.42 mg/mL trypsin to release fluorescent 7-amino-4-methylcoumarin (AMC), which was detected with a microplate reader (PHERAstar FS […]) with fluorescence excitation at 360 nm and emission at 460 nm. IC50 values were calculated by generating dose–response curves in GraphPad Prism 6 and fitting those to a four-parameter logistic model.
Take `C#Cc1cc[n+](C)cc1` [C6+]: the IC50 is 14 ± 1 µM.

For `C#Cc1nccc[n+]1C` [D6+], the IC50 was over 130 µM.

Consider `C[n+]1ccc(I)cc1` [C3+], for which the IC50 is 68 ± 5 µM.

For the compound `C[n+]1cccnc1I` [D3+], the IC50 was determined as 14 ± 1 µM.

As to `C[n+]1cncc(I)c1` [F3+], the IC50 turned out to be 16 ± 3 µM.

In the case of `C[n+]1cccnc1Cl` [D1+], the IC50 was determined as 60 ± 9 µM.

For the compound `C[n+]1cccnc1Br` [D2+], the IC50 was 23 ± 3 µM.

In the case of `C[n+]1cncc(Br)c1` [F2+], the IC50 turned out to be 29 ± 1 µM.

Turning to `C[n+]1ccccc1I` [A3+], the IC50 stood at 59 ± 4 µM.

As to `C#Cc1c[n+](C)ccn1` [G6+], the IC50 turned out to be 97 ± 34 µM.
